In patent US8536351B2, “2-aryl-5-heterocyclyl-cyclohexane-1,3,dione compounds and their use as herbicides” (Syngenta Crop Protection LLC, priority 2007, dated 2013):

Columns and labels:
Format in all cases: in vivo
Lolium perenne (LOLPE) [1] = experiment: Post-emergence activity, glasshouse pot test (100=total damage to plant; 0=no damage to plant); conditions: 336 h, evaluated 14 or 15 days after spraying; for pest or weed control at 500 g/ha: rate 500 g/ha
Protocol: (§1) Monocotyledonous and dicotyledonous test plants were sown in standard soil in pots. After cultivation for one day (pre-emergence) or after 10 days cultivation (post-emergence) under controlled conditions in a glasshouse, the plants were sprayed with an aqueous spray solution derived from the formulation of the technical active ingredient in 0.6 ml acetone and 45 ml formulation solution containing 10.6% Emulsogen EL (Registry number 61791-12-6), 42.2% N-methyl pyrrolidone, 42.2% dipropylene glycol monomethyl ether (Registry number 34590-94-8) and 0.2% X-77 (Registry number 11097-66-8). The test plants were then grown in a greenhouse under optimum conditions until, 14 or 15 days later for post-emergence and 19, 20 or 21 days for pre-emergence, the test was evaluated (100=total damage to plant; 0=no damage to plant). Alopecurus myosuroides (ALOMY), Avena fatua (AVEFA), Lolium perenne (LOLPE), Setaria faberi (SETFA), Digitaria sanguinalis (DIGSA), Echinochloa crus-galli (ECHCG) Post-Emergence Activity

Setaria faberi (SETFA) [2] = experiment: as above; conditions: evaluated 14 or 15 days after spraying; for pest or weed control at 500 g/ha: rate 500 g/ha
Protocol: as §1

Avena fatua (AVEFA) [3] = experiment: as above; conditions: 336 h, evaluated 14 or 15 days after spraying; for pest or weed control at 500 g/ha: rate 500 g/ha
Protocol: as §1

[4] = system: Echinochloa crus-galli (ECHCG); experiment: as above; conditions: evaluated 14 or 15 days after spraying; for pest or weed control at 500 g/ha: rate 500 g/ha
Protocol: as §1

[5] = system: Alopecurus myosuroides (ALOMY); experiment: as above; conditions: 336 h, evaluated 14 or 15 days after spraying; for pest or weed control at 500 g/ha: rate 500 g/ha
Protocol: as §1

[6] = system: Digitaria sanguinalis (DIGSA); experiment: as above; conditions: evaluated 14 or 15 days after spraying; for pest or weed control at 500 g/ha: rate 500 g/ha
Protocol: as §1

Lolium perenne (LOLPE) [7] = experiment: Pre-emergence activity, glasshouse pot test (100=total damage to plant; 0=no damage to plant); conditions: rate 500 g/ha, evaluated 19, 20 or 21 days after spraying
Protocol: as §1, with “Pre-Emergence” for “Post-Emergence”

Setaria faberi (SETFA) [8] = experiment: as above; conditions: rate 500 g/ha, evaluated 19, 20 or 21 days after spraying
Protocol: as §1, with “Pre-Emergence” for “Post-Emergence”

Avena fatua (AVEFA) [9] = experiment: as above; conditions: rate 500 g/ha, evaluated 19, 20 or 21 days after spraying
Protocol: as §1, with “Pre-Emergence” for “Post-Emergence”

[10] = system: Echinochloa crus-galli (ECHCG); experiment: as above; conditions: rate 500 g/ha, evaluated 19, 20 or 21 days after spraying
Protocol: as §1, with “Pre-Emergence” for “Post-Emergence”

[11] = system: Alopecurus myosuroides (ALOMY); experiment: as above; conditions: rate 500 g/ha, evaluated 19, 20 or 21 days after spraying
Protocol: as §1, with “Pre-Emergence” for “Post-Emergence”

[12] = system: Digitaria sanguinalis (DIGSA); experiment: as above; conditions: rate 500 g/ha, evaluated 19, 20 or 21 days after spraying
Protocol: as §1, with “Pre-Emergence” for “Post-Emergence”

Row | Structure (SMILES) | pest or weed control at 500 g/ha (Lolium perenne (LOLPE) [1]) [%] | pest or weed control at 500 g/ha (Setaria faberi (SETFA) [2]) [%] | pest or weed control at 500 g/ha (Avena fatua (AVEFA) [3]) [%] | pest or weed control at 500 g/ha [4] [%] | pest or weed control at 500 g/ha [5] [%] | pest or weed control at 500 g/ha [6] [%] | pest or weed control at 500 g/ha (Lolium perenne (LOLPE) [7]) [%] | pest or weed control at 500 g/ha (Setaria faberi (SETFA) [8]) [%] | pest or weed control at 500 g/ha (Avena fatua (AVEFA) [9]) [%] | pest or weed control at 500 g/ha [10] [%] | pest or weed control at 500 g/ha [11] [%] | pest or weed control at 500 g/ha [12] [%] | pest or weed control at 125 g/ha (Lolium perenne (LOLPE) [1]; rate 125 g/ha) [%] | pest or weed control at 125 g/ha (Setaria faberi (SETFA) [2]; rate 125 g/ha) [%] | pest or weed control at 125 g/ha (Avena fatua (AVEFA) [3]; rate 125 g/ha) [%] | pest or weed control at 125 g/ha ([4]; rate 125 g/ha) [%] | pest or weed control at 125 g/ha ([5]; rate 125 g/ha) [%] | pest or weed control at 125 g/ha ([6]; rate 125 g/ha) [%]
1 | CCc1cc(C)cc(CC)c1C1=C(O)CC(C2CCCSC2)CC1=O (stereo not drawn) [Compound T13] | 100 | 100 | 100 | 90 | 100 | 90 | 100 | 100 | 80 | 100 | 90 | 100 | – | – | – | – | – | –
2 | Cc1cc(C)c(C2=C(O)CC(C3CCCSC3)CC2=O)c(C)c1 (stereo not drawn) [Compound T14] | 60 | 90 | 30 | 80 | 70 | 90 | 70 | 90 | 20 | 70 | 60 | 90 | – | – | – | – | – | –
3 | Cc1cc(C)c(C2=C(O)CC(C3CCSCC3)CC2=O)c(C)c1 (stereo not drawn) [Compound T15] | 60 | 90 | 20 | 70 | 60 | 80 | 80 | 90 | 60 | 20 | 60 | 70 | – | – | – | – | – | –
4 | CCc1cc(C)cc(C)c1C1=C(O)CC(C2CCCSC2)CC1=O (stereo not drawn) [Compound T16] | 90 | 100 | 80 | 90 | 100 | 100 | 100 | 100 | 100 | 100 | 0 | 100 | – | – | – | – | – | –
5 | Cc1cc(C)c(C2=C(O)CC(C3CCS(=O)(=O)CC3)CC2=O)c(C)c1 (stereo not drawn) [Compound T17] | 0 | 90 | 20 | 90 | 20 | 90 | 0 | 50 | 70 | 60 | 20 | 60 | – | – | – | – | – | –
6 | CCc1cc(C)cc(CC)c1C1=C(O)CC(C2CCSCC2)CC1=O (stereo not drawn) [Compound T18] | 70 | 100 | 100 | 70 | 90 | 100 | 100 | 100 | 100 | 100 | 100 | 100 | – | – | – | – | – | –
7 | CCc1cc(C)cc(CC)c1C1=C(O)CC(C2CCCS(=O)(=O)C2)CC1=O (stereo not drawn) [Compound T19] | 80 | 100 | 90 | 100 | 80 | 100 | 100 | 100 | 90 | 100 | 100 | 100 | – | – | – | – | – | –
8 | CCc1cc(C)cc(CC)c1C1=C(O)CC(C2CCS(=O)(=O)CC2)CC1=O (stereo not drawn) [Compound T20] | 60 | 90 | 70 | 100 | 80 | 100 | 100 | 100 | 100 | 100 | 100 | 100 | – | – | – | – | – | –
9 | CCc1cc(C)cc(C)c1C1=C(O)CC(C2CCSCC2)CC1=O (stereo not drawn) [Compound T21] | 70 | 90 | 70 | 100 | 80 | 80 | 40 | 100 | 70 | 100 | 40 | 100 | – | – | – | – | – | –
10 | CCc1cc(C)cc(CC)c1C1=C(O)CC(C2CCC[S+]([O-])C2)CC1=O (stereo not drawn) [Compound T23] | – | – | – | – | – | – | 100 | 70 | 100 | 50 | 100 | 100 | 90 | 50 | 90 | 80 | 90 | 70
